{"source": "patent US20230407243A1", "about": "“GENETIC PLATFORM TO INVESTIGATE THE FUNCTIONS OF BACTERIAL DRUG EFFLUX PUMPS” (priority 2022, published 2023)", "type_in_all_cases": "cell-based, Escherichia coli", "key": {"EKO-35 araC::emrAB Pore": {"tested_on": "EKO-35 araC::emrAB Pore", "experiment": "MIC susceptibility profiling, porinated efflux platform", "method": "(§1) For genomic integration of the pore, the fhuA ΔC/Δ4L gene and the adjacent gentamicin resistance cassette were amplified using a high-fidelity polymerase and the fhuA_40_Up/gImS_3680_Low primers (Table 4). Integration of the pore gene was performed as described above. The pore gene was introduced into the intergenic region between the glmS and pstS genes, with gene expression under the control of a constitutive promoter (Kearse, M. et al., 2012). Genomic integrations were verified using PCR (Primers: pstS_520_Up/glmS_3680_Low, Table 4). Successful integrations were transformed with pCP20 to remove the gentamicin resistance cassette as previously described. Activity of the pore was confirmed through susceptibility testing with the large antibiotic vancomycin prior to phenotypic profiling and further susceptibility testing.\n(§2) Single colonies were used to inoculate 3 mL of LB followed by incubation at 37° C. for 18 h with aeration at 220 rpm. The bacterial cells were harvested by centrifugation and resuspended in phosphate buffered saline (PBS) ([pH 7.4], 137 mM NaCl (Bioshop), 2.7 mM KCl (Bioshop), 10 mM Na2PO4 (Bioshop) and 1.8 mM K2PO4) to an OD600 nm˜1.0, followed by 1/2000 dilution into MHB II.\n(§3) To a 384-well microtiter plate (Corning, untreated polystyrene), 500 nL of compound was dispensed, in duplicate, and serially titrated 2-fold using an Echo 550 acoustic liquid dispenser (Labcyte Inc.). […] As a solvent control, 500 nL of DMSO was applied to wells that contained no compound. Using a multichannel pipette, 50 μL of the prepared bacterial inoculum was applied to each well. To enable background correction post-incubation, the OD600 nm was measured (Biotek Synergy Neo2 microplate reader) prior to incubation. The plates were incubated at 37° C. with aeration at 900 rpm for 18 h. The plates were equilibrated to room temperature and the OD600 nm measured using a BioTek Synergy Neo2 microplate reader. Data was analyzed in both Prism (GraphPad, Version 9.2.0) and Microsoft Excel (Version 16.53). Raw data were input into Microsoft Excel and the pre-incubation OD600 nm measurements were subtracted from the post-incubation OD600 nm measurements. These corrected measurements were input into Prism 9 as a grouped analysis. […] All other MIC values were adjusted accordingly and visualized using the single-color scale grouped heat map function. Identification of compound chemical properties was achieved using DataWarrior (Version 5.5.0). Using PubChem, the SMILES chemical notation for each compound was obtained and compiled in Microsoft Excel. The resulting spreadsheet was input into DataWarrior and properties were calculated from the compound chemical structures."}, "EKO-35 araC::mdtEF Pore": {"tested_on": "EKO-35 araC::mdtEF Pore", "experiment": "MIC susceptibility profiling, porinated efflux platform", "method": "as §1, §2, §3"}, "[1]": {"tested_on": "EKO-35 araC::acrBD408A Pore", "experiment": "MIC susceptibility profiling, porinated efflux platform", "method": "as §1, §2, §3"}, "EKO-35 araC::mexCD Pore": {"tested_on": "EKO-35 araC::mexCD Pore", "experiment": "MIC susceptibility profiling, porinated efflux platform", "method": "as §1, §2, §3"}, "EKO-35 araC::mdtBC Pore": {"tested_on": "EKO-35 araC::mdtBC Pore", "experiment": "MIC susceptibility profiling, porinated efflux platform", "method": "as §1, §2, §3"}, "EKO-35 araC::acrEF Pore": {"tested_on": "EKO-35 araC::acrEF Pore", "experiment": "MIC susceptibility profiling, porinated efflux platform", "method": "as §1, §2, §3"}, "EKO-35 araC::emrKY Pore": {"tested_on": "EKO-35 araC::emrKY Pore", "experiment": "MIC susceptibility profiling, porinated efflux platform", "method": "as §1, §2, §3"}, "EKO-35 araC::acrD Pore": {"tested_on": "EKO-35 araC::acrD Pore", "experiment": "MIC susceptibility profiling, porinated efflux platform", "method": "as §1, §2, §3"}, "EKO-35 araC::macAB Pore": {"tested_on": "EKO-35 araC::macAB Pore", "experiment": "MIC susceptibility profiling, porinated efflux platform", "method": "as §1, §2, §3"}, "EKO-35 araC::mdtBC": {"tested_on": "EKO-35 araC::mdtBC", "experiment": "MIC susceptibility profiling, efflux platform", "method": "as §2, §3"}, "EKO-35 araC::mdtEF": {"tested_on": "EKO-35 araC::mdtEF", "experiment": "MIC susceptibility profiling, efflux platform", "method": "as §2, §3"}, "wild-type (WT) K-12-Pore": {"tested_on": "wild-type (WT) K-12-Pore", "experiment": "microbe, parasite or virus in culture", "conditions": "Escherichia coli, technical duplicate", "method": "as §1, §2, §3"}, "ΔtolC-Pore": {"tested_on": "ΔtolC-Pore", "experiment": "microbe, parasite or virus in culture", "method": "as §1, §2, §3"}, "EKO-35-Pore": {"tested_on": "EKO-35-Pore", "experiment": "MIC susceptibility profiling, porinated strain", "conditions": "for MIC: Escherichia coli, technical duplicate", "method": "as §1, §2, §3"}, "E. coli ΔtolC": {"tested_on": "E. coli ΔtolC", "experiment": "microbe, parasite or virus in culture", "method": "as §2, §3"}, "[2]": {"tested_on": "wild-type E. coli K-12 str. BW25113", "experiment": "microbe, parasite or virus in culture", "conditions": "Escherichia coli, BW25113, technical duplicate", "method": "as §2, §3"}, "E. coli EKO-35": {"tested_on": "E. coli EKO-35", "experiment": "microbe, parasite or virus in culture", "conditions": "for MIC: Escherichia coli, EKO35, technical duplicate", "method": "as §2, §3"}}, "note": "Where two headings read alike, the source gives them in different places."}
{"smiles": "COc1cccc2c1C(=O)c1c(O)c3c(c(O)c1C2=O)C[C@@](O)(C(C)=O)C[C@@H]3O[C@H]1C[C@H](N)[C@H](O)[C@H](C)O1", "note": "[daunorubicin]", "values": [{"measurement": "Fold changes of MICs", "setting": "EKO-35 araC::emrAB Pore; EKO-35 araC::emrAB Pore compared to EKO-35-Pore", "result": 2, "unit": "fold"}, {"measurement": "MIC", "setting": "EKO-35 araC::emrAB Pore; Escherichia coli, EKO-35 araC::emrAB Pore, technical duplicate, read-out: Minimum inhibitory concentration", "result": 1.56, "unit": "µg/mL"}, {"measurement": "Fold changes of MICs", "setting": "EKO-35 araC::mdtEF Pore; EKO-35 araC::mdtEF Pore compared to EKO-35-Pore", "result": 64, "unit": "fold"}, {"measurement": "MIC", "setting": "EKO-35 araC::mdtEF Pore; Escherichia coli, Table 14A, porinated, technical duplicate, read-out: Minimum inhibitory concentration, EKO-35 araC::mdtEF Pore", "result": 50, "unit": "µg/mL"}, {"measurement": "Fold changes of MICs", "setting": "[1]; EKO-35 araC::acrBD408A Pore compared to EKO-35-Pore", "result": 1, "unit": "fold"}, {"measurement": "MIC", "setting": "[1]; Escherichia coli, EKO-35 araC::acrBD408A Pore, technical duplicate, read-out: Minimum inhibitory concentration", "result": 0.781, "unit": "µg/mL"}, {"measurement": "Fold changes of MICs", "setting": "EKO-35 araC::mexCD Pore; EKO-35 araC::mexCD Pore compared to EKO-35-Pore", "result": 16, "unit": "fold"}, {"measurement": "MIC", "setting": "EKO-35 araC::mexCD Pore; Escherichia coli, EKO-35 araC::mexCD Pore, technical duplicate, read-out: Minimum inhibitory concentration", "result": 12.5, "unit": "µg/mL"}, {"measurement": "Fold changes of MICs", "setting": "EKO-35 araC::mdtBC Pore; EKO-35 araC::mdtBC Pore compared to EKO-35-Pore", "result": 4, "unit": "fold"}, {"measurement": "MIC", "setting": "EKO-35 araC::mdtBC Pore; Escherichia coli, EKO-35 araC::mdtBC Pore, technical duplicate, read-out: Minimum inhibitory concentration", "result": 3.12, "unit": "µg/mL"}, {"measurement": "efflux pump-mediated resistance vs EKO-35-Pore", "setting": "EKO-35 araC::mdtBC Pore; MdtBC with the pore", "result": "associated with resistance"}, {"measurement": "Fold changes of MICs", "setting": "EKO-35 araC::acrEF Pore; EKO-35 araC::acrEF Pore compared to EKO-35-Pore", "result": 32, "unit": "fold"}, {"measurement": "MIC", "setting": "EKO-35 araC::acrEF Pore; Escherichia coli, Table 14A, porinated, technical duplicate, read-out: Minimum inhibitory concentration, EKO-35 araC::acrEF Pore", "result": 25, "unit": "µg/mL"}, {"measurement": "Fold changes of MICs", "setting": "EKO-35 araC::emrKY Pore; EKO-35 araC::emrKY Pore compared to EKO-35-Pore", "result": 1, "unit": "fold"}, {"measurement": "MIC", "setting": "EKO-35 araC::emrKY Pore; Escherichia coli, EKO-35 araC::emrKY Pore, technical duplicate, read-out: Minimum inhibitory concentration", "result": 0.781, "unit": "µg/mL"}, {"measurement": "Fold changes of MICs", "setting": "EKO-35 araC::acrD Pore; EKO-35 araC::acrD Pore compared to EKO-35-Pore", "result": 2, "unit": "fold"}, {"measurement": "MIC", "setting": "EKO-35 araC::acrD Pore; Escherichia coli, Table 14A, porinated, technical duplicate, read-out: Minimum inhibitory concentration, EKO-35 araC::acrD Pore", "result": 1.56, "unit": "µg/mL"}, {"measurement": "Fold changes of MICs", "setting": "EKO-35 araC::macAB Pore; EKO-35 araC::macAB Pore compared to EKO-35-Pore", "result": 2, "unit": "fold"}, {"measurement": "MIC", "setting": "EKO-35 araC::macAB Pore; Escherichia coli, EKO-35 araC::macAB Pore, technical duplicate, read-out: Minimum inhibitory concentration", "result": 1.56, "unit": "µg/mL"}, {"measurement": "Fold change of MICs", "setting": "EKO-35 araC::mdtBC; EKO-35 araC::mdtBC compared to EKO-35", "result": 1, "unit": "fold"}, {"measurement": "MIC", "setting": "EKO-35 araC::mdtBC; Escherichia coli, Table 13B, non-porinated, technical duplicate, read-out: Minimum Inhibitory Concentration, EKO-35 araC::mdtBC", "result": 1.56, "unit": "µg/mL"}, {"measurement": "Fold change of MICs", "setting": "EKO-35 araC::mdtEF; EKO-35 araC::mdtEF compared to EKO-35", "result": 64, "unit": "fold"}, {"measurement": "MIC", "setting": "EKO-35 araC::mdtEF; Escherichia coli, Table 13A, non-porinated, technical duplicate, read-out: Minimum Inhibitory Concentration, EKO-35 araC::mdtEF", "result": 200, "unit": "µg/mL"}, {"measurement": "MIC", "setting": "wild-type (WT) K-12-Pore; Table 10, with pore, read-out: Minimum inhibitory concentration (MIC), Pore K-12", "result": 100, "unit": "µg/mL"}, {"measurement": "MIC", "setting": "wild-type (WT) K-12-Pore; Table 14A, porinated, read-out: Minimum inhibitory concentration, K-12 (WT)-Pore", "result": 100, "unit": "µg/mL"}, {"measurement": "MIC", "setting": "ΔtolC-Pore; Escherichia coli, 18 h, read-out: Minimum inhibitory concentration, ΔtolC-Pore", "result": 0.781, "unit": "µg/mL"}, {"measurement": "Minimum inhibitory concentration (MIC), Pore ΔtolC", "setting": "ΔtolC-Pore; Table 10, with pore, technical duplicate", "result": 0.781, "unit": "µg/mL"}, {"measurement": "Fold changes of MICs", "setting": "EKO-35-Pore; EKO-35-Pore compared to EKO-35-Pore (reference)", "result": 1, "unit": "fold"}, {"measurement": "MIC", "setting": "EKO-35-Pore; Table 10, with pore, read-out: Minimum inhibitory concentration (MIC), Pore EKO-35", "result": 0.781, "unit": "µg/mL"}, {"measurement": "MIC", "setting": "EKO-35-Pore; Table 14A, porinated, read-out: Minimum inhibitory concentration, EKO-35-Pore", "result": 0.781, "unit": "µg/mL"}, {"measurement": "MIC", "setting": "E. coli ΔtolC; Escherichia coli, 18 h, read-out: Minimum Inhibitory Concentration, ΔtolC", "result": 1.56, "unit": "µg/mL"}, {"measurement": "Minimum inhibitory concentration (MIC), ΔtolC", "setting": "E. coli ΔtolC; Table 10, without pore, technical duplicate", "result": 1.563, "unit": "µg/mL"}, {"measurement": "MIC", "setting": "[2]; Table 10, without pore, read-out: Minimum inhibitory concentration (MIC), K-12", "result": 200, "unit": "µg/mL"}, {"measurement": "MIC", "setting": "[2]; Table 13A, non-porinated, read-out: Minimum Inhibitory Concentration, K-12", "result": 200, "unit": "µg/mL"}, {"measurement": "Fold change of MICs", "setting": "E. coli EKO-35; EKO-35 compared to EKO-35 (reference)", "result": 1, "unit": "fold"}, {"measurement": "MIC", "setting": "E. coli EKO-35; Table 10, without pore, read-out: Minimum inhibitory concentration (MIC), EKO-35", "result": 3.12, "unit": "µg/mL"}, {"measurement": "MIC", "setting": "E. coli EKO-35; Table 13A, non-porinated, read-out: Minimum Inhibitory Concentration, EKO-35", "result": 3.12, "unit": "µg/mL"}]}
